# Source: patent publication US5104865A, “Iron complexes of hydroxypyridones useful for treating iron overload” (National Research Development Corporation, priority 1983, dated 1992)
# Where two headings read alike, the source gives them in different places.
# Legend:
# [1] = Affinity for iron(III) expressed as log Ksol; type: physicochemical
# From the text: In order to solubilise iron(III) hydroxide, log Ksol must be greater than 0 and in order to remove iron from transferrin, log Ksol should be in excess of 6.0. The log Ksol values for the single ring compounds 3-hydroxyl-1-methylpyrid-2-one and 1,2-dimethyl-3-hydroxypyrid-4-one, by way of example, are 10.0 and 9.5, respectively, thus comparing favourably with those of the bidentate hydroxamates at about 4.0, of catechols at about 8.0, of desferrioxamine at 6.0, and of diethylenetriamine penta-acetic acid (DTPA) at 2.0.
# [2] = biological target: T1, Horse spleen ferritin (Equus caballus, UniProt P02791); experiment: Mobilisation of iron from ferritin; type: biochemical; settings: 25° C., pH 7.4
# T1 construct: purchased Sigma; host or cells: horse spleen
# T1 sequence (P02791 2-175 limits assumed): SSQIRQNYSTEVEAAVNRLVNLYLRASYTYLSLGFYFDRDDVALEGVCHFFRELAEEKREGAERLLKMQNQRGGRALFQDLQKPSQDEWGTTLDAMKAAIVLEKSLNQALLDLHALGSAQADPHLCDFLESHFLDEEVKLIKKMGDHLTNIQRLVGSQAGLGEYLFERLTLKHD
# Experimental: Horse spleen ferritin (Sigma) was used without further purification and its iron content was estimated spectrophotometrically at 420 nm. The ferritin solution in phosphate buffered saline (Dulbecco-OXOID, 10^-6 M, pH 7.4) was incubated at 25° C. with the compound at 10^-4 M for 6 and 24 hours. Apoferritin (in admixture with ferritin) and the particular linked hydroxypyridone Fe^(III) complex were separated by chromatography on Sephadex G10. The absorption spectra of the high and low molecular weight fractions were recorded and the percentage of iron removed from the ferritin was calculated and is reported in Table 3. For comparative purposes, the procedure was repeated using a blank control, and also with the single ring, bidentate compound 1-ethyl-3-hydroxypyrid-4-one (at 10^-3 M). In addition, results reported in the literature for similar tests with 1×10^-3 M desferrioxamine (Crichton et al, J. Inorganic Biochem., 1980, 13, 305) and with 6×10^-3 M LICAMS (Tufano et al, Biochem. Biophys. Acta, 1981, 668, 420 ) are also given in the Table.
# [3] = biological target: T2, Human transferrin (Homo sapiens, UniProt P02787); experiment: Mobilisation of iron from transferrin; type: biochemical; settings: for Percentage of iron removed from transferrin after 6 hours: compound 4×10^-3 M, 59Fe(III) transferrin 10^-5 M, tris HCl 0.1M pH 7.4, 6 hours
# T2 construct: purchased Sigma
# T2 sequence (P02787 20-698): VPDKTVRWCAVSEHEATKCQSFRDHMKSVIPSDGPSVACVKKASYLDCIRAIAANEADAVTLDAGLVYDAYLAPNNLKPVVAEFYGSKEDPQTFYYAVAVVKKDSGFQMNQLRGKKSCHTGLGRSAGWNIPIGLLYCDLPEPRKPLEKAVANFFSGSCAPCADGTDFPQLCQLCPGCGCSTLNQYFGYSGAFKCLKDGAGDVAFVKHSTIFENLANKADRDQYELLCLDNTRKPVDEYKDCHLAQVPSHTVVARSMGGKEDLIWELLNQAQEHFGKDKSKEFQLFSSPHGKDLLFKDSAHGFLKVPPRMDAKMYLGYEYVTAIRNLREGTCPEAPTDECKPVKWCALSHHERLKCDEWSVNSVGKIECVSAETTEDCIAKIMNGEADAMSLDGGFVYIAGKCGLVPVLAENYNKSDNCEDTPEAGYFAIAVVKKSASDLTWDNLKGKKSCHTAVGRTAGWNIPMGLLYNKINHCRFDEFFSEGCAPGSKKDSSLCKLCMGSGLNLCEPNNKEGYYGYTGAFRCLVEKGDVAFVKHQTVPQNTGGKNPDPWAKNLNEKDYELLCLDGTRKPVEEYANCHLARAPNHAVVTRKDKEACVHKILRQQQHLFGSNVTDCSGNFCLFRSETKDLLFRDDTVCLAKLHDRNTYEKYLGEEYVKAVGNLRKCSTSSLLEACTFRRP
# Experimental: Human transferrin (Sigma) was loaded with iron(III) by the method of Bates and Schlaback, J. Biol. Chem. (1973) 248, 3228. ^59 Iron (III) transferrin (10^-5 M) was incubated with a 4×10^-3 M solution in tris HCl (0.1M, pH 7.4) of one of various pyridones as indicated in Table 4 for periods of 6 hours.
# [4] = Partition coefficient Kpart between n-octanol and aqueous tris hydrochloride; settings: n-octanol/tris hcl, pH 7.4
# Experimental: (§1) The partition coefficient Kpart, being the ratio (concentration of compound in n-octanol)/(concentraction of compound in aqueous phase) on partition between n-octanol and aqueous tris hydrochloride (20 mM, pH 7.4), is measured by spectrophotometry at 20° C. for various of the compounds of the previous Examples and for their iron(III) complexes (at 10^-4 M). […] Acid washed glassware is used throughout and, following mixing of 5 ml of the 10^-4 M aqueous solution with 5 ml n-octanol for 1 minute, the aqueous n-octanol mixture is centrifuged at 1,000 g for 30 seconds. The two resulting phases are separated for a concentration determination by spectrophotometry on each. For the metal-free linked hydroxypyridone compounds, the range 220-340 nm is used for concentration determinations whilst for the iron complexes, the range 340-640 nm is used.
# [5] = 100 uM, pH 7.4
# Experimental: as §1
# [6] = biological target: T1, Horse spleen ferritin; settings: similar test, cited from earlier work
# [7] = system: inverted rat jejunal sac; experiment: Permeation of inverted rat jejunal sac by iron complexes; type: in vitro ADME; settings: relative to ferric chloride as 1; 59Fe complexes, 37° C., up to 1 hour
# From the text: Rats (male Sprague Dawley, 60 g) were killed and the jejunum removed, everted and cut into three segments (4 cm length). […] The contents of the sac were counted for ^59 Fe and measured spectrophotometrically.
# [8] = system: human erythrocytes; experiment: Permeation of 59Fe labelled iron complexes into human erythrocytes; type: cell-based; settings: 59Fe complex 10^-3 M, 5% erythrocyte suspension, 1 hour, 37° C., pH 7.4; mean of at least three determinations
# Experimental: The accumulation of iron by human erythrocytes which are associated with the iron complexes of three compounds described in earlier Examples was studied by incubating for 1 hour at 37° C. a 5% suspension of erythrocytes in a medium consisting of the ^59 Fe labelled iron complex^(1) (10^-3 M) in aqueous sodium chloride (130 mM) buffered to pH 7.4 by tris hydrochloride (2 ml). Following this period of incubation, an aliquot of the erythrocyte/medium mixture was placed above a layer of silicone oil and the erythrocytes separated by centrifugation through the oil. The ^59 Fe levels associated with the erythrocytes and the incubation medium were then counted. By way of comparison, a similar experiment was concluded with ferric citrate.
compound,measurement,setting,value
"Cc1c(O)c(=O)ccn1C [1,2-dimethyl-3-hydroxypyrid-4-one]",log Ksol,[1],9.5
"CCn1ccc(=O)c(O)c1 [1-ethyl-3-hydroxypyrid-4-one, reference compound]","Percentage of iron removed from ferritin, 6 hours",[2]; compound 10^-3 M,25%
same,"Percentage of iron removed from ferritin, 24 hours",[2]; compound 10^-3 M,44%
Cn1cccc(O)c1=O [3-hydroxyl-1-methylpyrid-2-one],log Ksol,[1],10.0
"O=C(Cn1cccc(O)c1=O)NCCCCCCNC(=O)Cn1cccc(O)c1=O [Compound 4, 1,6-di-(3-hydroxy-2-oxopyrid-1-ylacetamido)-hexane]","Percentage of iron removed from ferritin, 6 hours",[2]; compound 10^-4 M,< 1%
same,"Percentage of iron removed from ferritin, 24 hours",[2]; compound 10^-4 M,3%
O=C(Cn1cccc(O)c1=O)NCCCCCCCCNC(=O)Cn1cccc(O)c1=O [Compound 5],Percentage of iron removed from transferrin after 6 hours,[3],32%
same,logD at 100 µM,[4],-1.77
same,"Partition coefficient Kpart, iron complex [Fe^III -(compound)3 ]",[5],0.10
O=C(Cn1cccc(O)c1=O)NCCN(CCNC(=O)Cn1cccc(O)c1=O)CCNC(=O)Cn1cccc(O)c1=O [Compound 8],Percentage of iron removed from transferrin after 6 hours,[3],40%
same,"Removal of iron from transferrin, comparison in words",[3]; versus desferrioxamine and EDTA,markedly better results than desferrioxamine or EDTA
same,"Percentage of iron removed from ferritin, 6 hours",[2]; compound 10^-4 M,3%
same,"Percentage of iron removed from ferritin, 24 hours",[2]; compound 10^-4 M,10%
same,logD at 100 µM,[4],-1.7
same,"Partition coefficient Kpart, iron complex [Fe^III -(compound)3 ]",[5],0.03
"O=C(Cn1cccc(O)c1=O)NCCCN(CCCNC(=O)Cn1cccc(O)c1=O)C(=O)Cn1cccc(O)c1=O [Compound 10, N-(3-hydroxy-2-oxopyrid-1-ylacetyl)-N-[3-(3-hydroxy-2-oxopyrid-1-ylacetamido)-propyl]-3-(3-hydroxy-2-oxopyrid-1-ylacetamido)-propylamine]",logD at 100 µM,[4],-0.699
same,"Partition coefficient Kpart, iron complex [Fe^III -(compound)3 ]",[5],0.3
"O=C(O)CN(CCN(CC(=O)O)CC(=O)O)CCN(CC(=O)O)CC(=O)O [DTPA, diethylenetriamine penta-acetic acid]",log Ksol,[1],2.0
"CC(=O)N(O)CCCCCNC(=O)CCC(=O)N(O)CCCCCNC(=O)CCC(=O)N(O)CCCCCN [Desferrioxamine, desferrioxamine]",Percentage of iron removed from transferrin after 6 hours,[3],17%
same,"Percentage of iron removed from ferritin, 6 hours","[6]; 10^-3 M, literature value (Crichton et al 1980)",1.2%
same,log Ksol,[1],6.0
"O=C(O)CN(CCN(CC(=O)O)CC(=O)O)CC(=O)O [EDTA, ethylenediamine tetra-acetic acid, reference compound]",Percentage of iron removed from transferrin after 6 hours,[3],27%
"[Cl][Fe]([Cl])[Cl] [FeCl3, ferric chloride]",Relative iron uptake into serosal space of jejunal sac,[7],1
O=C(NCCCCN(CCCNC(=O)c1cc(S(=O)(=O)O)cc(O)c1O)C(=O)c1cc(S(=O)(=O)O)cc(O)c1O)c1cc(S(=O)(=O)O)cc(O)c1O [LICAMS],"Percentage of iron removed from ferritin, 6 hours","[6]; 6 × 10^-3 M, literature value (Tufano et al 1981)",0%
ferric citrate [Fe^III citrate],Amount of complex entering erythrocytes,[8],< 5 n.mole
